What was measured:
Conditions in all cases: 48 h
SEM cells [1] = assay: cell viability relative to DMSO control; higher = less cytotoxic
Procedure, shortened: (§1)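 Cells were incubated for 48 h at 37°C before CellTiter-Glo One luminescence was read. The cells were NOMO1 or SEM (500 cells/well) or P12-Ichikawa (1000 cells/well) leukemia cells, adapted for at least four passages in each medium and seeded in 1536-well plates (5 μl). Dosing used library compounds in DMSO applied by pin over 11 threefold points, 47 μM to 0.79 nM. Viability is the per-plate percentage of DMSO wells, with cell-free wells as background.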

NOMO1 [2] = assay: as above
Procedure, shortened: as §1

P12-Ichikawa [3] = assay: as above
Procedure, shortened: as §1

SEM cells [4] = assay: AUC of viability dose-response curve (% viability x log10 dose units); higher = less sensitive
Procedure, shortened: (§2)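 Over 48 h at 37°C, leukemia cells in 1536-well plates (500 or 1000 cells/well), adapted to each medium, received library compounds in DMSO at 11 threefold doses from 47 μM to 0.79 nM. CellTiter-Glo One luminescence, normalised per plate to DMSO and cell-free wells, was fitted by a four-parameter log-logistic function of log10 dose. The area under the curve was then integrated by trapezoidal rule, after scaling curves above full viability and removing those that failed quality control.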

NOMO1 [5] = assay: as above
Procedure, shortened: as §2

P12-Ichikawa [6] = assay: as above
Procedure, shortened: as §2

CC(C)Oc1cc(Nc2nc(N[C@@H](C)c3ccc(F)cn3)ncc2Cl)n[nH]1
cell viability [%]
Conditions | NOMO1 [2] | P12-Ichikawa [3] | SEM cells [1]
HPLM + 10% dialyzed FBS, 0.000781 µM | 104 | 111 | 106
HPLM + 10% dialyzed FBS, 0.00234 µM | 113 | 111 | 103
HPLM + 10% dialyzed FBS, 0.00702 µM | 120 | 116 | 90.3
HPLM + 10% dialyzed FBS, 0.0211 µM | 114 | 112 | 102
HPLM + 10% dialyzed FBS, 0.0632 µM | 99 | 110 | 96.3
HPLM + 10% dialyzed FBS, 0.19 µM | 96.8 | 115 | 80.5
HPLM + 10% dialyzed FBS, 0.569 µM | 127 | 106 | 50.5
HPLM + 10% dialyzed FBS, 1.71 µM | 94.1 | 13.3 | 34.6
HPLM + 10% dialyzed FBS, 5.12 µM | 101 | 14.7 | 26
HPLM + 10% dialyzed FBS, 15.4 µM | 108 | 29.6 | 22.1
HPLM + 10% dialyzed FBS, 46.1 µM | 92.4 | 41.1 | 25.3
RPMI 5 mM glucose + 10% FBS, 0.000781 µM | 107 | 104 | 109
RPMI 5 mM glucose + 10% FBS, 0.00234 µM | 100 | 92.9 | 83.1
RPMI 5 mM glucose + 10% FBS, 0.00702 µM | 111 | 105 | 96
RPMI 5 mM glucose + 10% FBS, 0.0211 µM | 110 | 106 | 95.6
RPMI 5 mM glucose + 10% FBS, 0.0632 µM | 104 | 108 | 108
RPMI 5 mM glucose + 10% FBS, 0.19 µM | 104 | 110 | 81.2
RPMI 5 mM glucose + 10% FBS, 0.569 µM | 116 | 104 | 60.3
RPMI 5 mM glucose + 10% FBS, 1.71 µM | 53.7 | 15.2 | 21.9
RPMI 5 mM glucose + 10% FBS, 5.12 µM | 60.4 | 17 | 19.2
RPMI 5 mM glucose + 10% FBS, 15.4 µM | 68 | 27.5 | 14.8
RPMI 5 mM glucose + 10% FBS, 46.1 µM | 72.6 | 40 | 16.2
RPMI 5 mM glucose + 10% dialyzed FBS, 0.000781 µM | 101 | 113 | 84.9
RPMI 5 mM glucose + 10% dialyzed FBS, 0.00234 µM | 109 | 113 | 98
RPMI 5 mM glucose + 10% dialyzed FBS, 0.00702 µM | 115 | 108 | 100
RPMI 5 mM glucose + 10% dialyzed FBS, 0.0211 µM | 100 | 114 | 114
RPMI 5 mM glucose + 10% dialyzed FBS, 0.0632 µM | 134 | 115 | 83
RPMI 5 mM glucose + 10% dialyzed FBS, 0.19 µM | 110 | 116 | 67.9
RPMI 5 mM glucose + 10% dialyzed FBS, 0.569 µM | 110 | 105 | 43.4
RPMI 5 mM glucose + 10% dialyzed FBS, 1.71 µM | 61.6 | 27.9 | 26.3
RPMI 5 mM glucose + 10% dialyzed FBS, 5.12 µM | 57.6 | 30.5 | 17.9
RPMI 5 mM glucose + 10% dialyzed FBS, 15.4 µM | 68.9 | 46.6 | 14.9
RPMI 5 mM glucose + 10% dialyzed FBS, 46.1 µM | 85.9 | 55.5 | 16.2

AUC of viability dose-response curve
Conditions | NOMO1 [5] | P12-Ichikawa [6] | SEM cells [4]
HPLM + 10% dialyzed FBS | 449 | 344 | 319
RPMI 5 mM glucose + 10% FBS | 409 | 349 | 310
RPMI 5 mM glucose + 10% dialyzed FBS | 412 | 366 | 291

CCNC(=O)c1cc2c(-c3cc(OCCN4CCCC4)c(Cl)cc3Cl)nc(N)nc2s1
cell viability [%]
Conditions | NOMO1 [2] | P12-Ichikawa [3] | SEM cells [1]
HPLM + 10% dialyzed FBS, 0.000781 µM | 105 | 98.3 | 114
HPLM + 10% dialyzed FBS, 0.00234 µM | 121 | 103 | 112
HPLM + 10% dialyzed FBS, 0.00702 µM | 92.7 | 109 | 112
HPLM + 10% dialyzed FBS, 0.0211 µM | 107 | 108 | 101
HPLM + 10% dialyzed FBS, 0.0632 µM | 102 | 102 | 104
HPLM + 10% dialyzed FBS, 0.19 µM | 104 | 101 | 114
HPLM + 10% dialyzed FBS, 0.569 µM | 105 | 108 | 101
HPLM + 10% dialyzed FBS, 1.71 µM | 86.6 | 92.8 | 95.2
HPLM + 10% dialyzed FBS, 5.12 µM | 47.3 | 62.9 | 32.2
HPLM + 10% dialyzed FBS, 15.4 µM | 17.2 | 53.6 | 20.1
HPLM + 10% dialyzed FBS, 46.1 µM | 15.8 | 44.9 | 19.4
RPMI 5 mM glucose + 10% FBS, 0.000781 µM | 84.7 | 102 | 103
RPMI 5 mM glucose + 10% FBS, 0.00234 µM | 93.6 | 91.9 | 108
RPMI 5 mM glucose + 10% FBS, 0.00702 µM | 95.6 | 106 | 117
RPMI 5 mM glucose + 10% FBS, 0.0211 µM | 85.6 | 97 | 96.6
RPMI 5 mM glucose + 10% FBS, 0.0632 µM | 95.8 | 98.4 | 112
RPMI 5 mM glucose + 10% FBS, 0.19 µM | 109 | 95.8 | 112
RPMI 5 mM glucose + 10% FBS, 0.569 µM | 88.2 | 97.2 | 112
RPMI 5 mM glucose + 10% FBS, 1.71 µM | 88.9 | 77.6 | 86.9
RPMI 5 mM glucose + 10% FBS, 5.12 µM | 32.3 | 47.1 | 31.9
RPMI 5 mM glucose + 10% FBS, 15.4 µM | 13.2 | 34 | 21.8
RPMI 5 mM glucose + 10% FBS, 46.1 µM | 10.1 | 35.5 | 18.7
RPMI 5 mM glucose + 10% dialyzed FBS, 0.000781 µM | 107 | 102 | 96.2
RPMI 5 mM glucose + 10% dialyzed FBS, 0.00234 µM | 103 | 96.5 | 98.6
RPMI 5 mM glucose + 10% dialyzed FBS, 0.00702 µM | 115 | 101 | 92.2
RPMI 5 mM glucose + 10% dialyzed FBS, 0.0211 µM | 111 | 94.7 | 110
RPMI 5 mM glucose + 10% dialyzed FBS, 0.0632 µM | 82.8 | 96 | 98.7
RPMI 5 mM glucose + 10% dialyzed FBS, 0.19 µM | 107 | 97.6 | 112
RPMI 5 mM glucose + 10% dialyzed FBS, 0.569 µM | 93.2 | 90.5 | 98
RPMI 5 mM glucose + 10% dialyzed FBS, 1.71 µM | 76.8 | 73.4 | 68.3
RPMI 5 mM glucose + 10% dialyzed FBS, 5.12 µM | 51.2 | 42 | 30.3
RPMI 5 mM glucose + 10% dialyzed FBS, 15.4 µM | 18.3 | 36.5 | 19.4
RPMI 5 mM glucose + 10% dialyzed FBS, 46.1 µM | 12.5 | 31.5 | 19.1

AUC of viability dose-response curve
Conditions | NOMO1 [5] | P12-Ichikawa [6] | SEM cells [4]
HPLM + 10% dialyzed FBS | 381 | 415 | 379
RPMI 5 mM glucose + 10% FBS | 355 | 389 | 375
RPMI 5 mM glucose + 10% dialyzed FBS | 373 | 380 | 368
